Measurements from US10683287B2, “Heterocyclic derivatives and their use in the treatment of neurological disorders” (Novartis AG, priority 2011, dated 2020).

System: Cellular Release of Amyloid Peptide 1-40
Assay: Test 4: Inhibition of Cellular Release of Amyloid Peptide 1-40
Type: cell-based, Chinese hamster
Settings: Cricetulus griseus, 24 h; read-out: Amyloid-β1-40 release IC50
Procedure: Chinese hamster ovary cells are transfected with the human gene for amyloid precursor protein. The cells are plated at a density of 8000 cells/well into 96-well microtiter plates and cultivated for 24 hours in DMEM cell culture medium containing 10% FCS. The test compound is added to the cells at various concentrations, and the cells are cultivated for 24 hours in the presence of the test compound.

Row | Structure (SMILES) | IC50
1 | Cc1cc(OC(F)F)cnc1C(=O)Nc1ccc(F)c([C@]2(C)CO[C@@](C)(C(F)(F)F)C(N)=N2)n1 [Example 29, 5-Difluoromethoxy-3-methyl-pyridine-2-carboxylic acid [6-((3R,6R)-5-amino-3,6-dimethyl-6-trifluoromethyl-3,6-dihydro-2H-[1,4]oxazin-3-yl)-5-fluoro-pyridin-2-yl]amide] | 24 nM
2 | C[C@@]1(c2cc(NC(=O)c3ncc(C#N)cc3Cl)ncc2F)CO[C@@](C)(C(F)(F)F)C(N)=N1 [Example 35, 3-Chloro-5-cyano-pyridine-2-carboxylic acid [4-((3R,6R)-5-amino-3,6-dimethyl-6-trifluoromethyl-3,6-dihydro-2H-[1,4]oxazin-3-yl)-5-fluoro-pyridin-2-yl]-amide] | 140 nM
3 | Cc1cnc(C(=O)Nc2ccc(F)c([C@]3(C)CO[C@@](C)(C(F)(F)F)C(N)=N3)n2)cn1 [Example 33, 5-Methyl-pyrazine-2-carboxylic acid [6-((3R,6R)-5-amino-3,6-dimethyl-6-trifluoromethyl-3,6-dihydro-2H-[1,4]oxazin-3-yl)-5-fluoro-pyridin-2-yl]amide] | 130 nM
4 | Cc1cc(C#N)cnc1C(=O)Nc1ccc(F)c([C@@]2(C(F)F)COCC(N)=N2)n1 [Example 39, 5-Cyano-3-methyl-pyridine-2-carboxylic acid [6-((S)-5-amino-3-difluoromethyl-3,6-dihydro-2H-[1,4]oxazin-3-yl)-5-fluoro-pyridin-2-yl]-amide] | 290 nM
5 | C[C@@]1(c2cccc(NC(=O)c3ncc(C#N)cc3Cl)n2)CO[C@@](C)(C(F)(F)F)C(N)=N1 [Example 20, 3-Chloro-5-cyano-pyridine-2-carboxylic acid [6-((3R,6R)-5-amino-3,6-dimethyl-6-trifluoromethyl-3,6-dihydro-2H-[1,4]oxazin-3-yl)-pyridin-2-yl]-amide] | 5 nM
6 | C[C@@]1(c2cccc(NC(=O)c3ncc(Br)cc3Cl)n2)CO[C@@](C)(C(F)(F)F)C(N)=N1 [Example 22, 5-Bromo-3-chloro-pyridine-2-carboxylic acid [6-((3R,6R)-5-amino-3,6-dimethyl-6-trifluoromethyl-3,6-dihydro-2H-[1,4]oxazin-3-yl)-pyridin-2-yl]-amide] | 29 nM
7 | Cc1cc(C#N)cnc1C(=O)Nc1cc([C@]2(C)COC(CF)(CF)C(N)=N2)c(F)cn1 [Example 37, 5-Cyano-3-methyl-pyridine-2-carboxylic acid [4-((R)-5-amino-6,6-bis-fluoromethyl-3-methyl-3,6-dihydro-2H-[1,4]oxazin-3-yl)-5-fluoro-pyridin-2-yl]-amide] | 83 nM
8 | Cc1cc(C#N)cnc1C(=O)Nc1ccc(F)c([C@@]2(C)CO[C@@](C)(C(F)(F)F)C(N)=N2)n1 [Example 12, 5-Cyano-3-methyl-pyridine-2-carboxylic Acid [6-((3S,6R)-5-amino-3,6-dimethyl-6-trifluoromethyl-3,6-dihydro-2H-[1,4]oxazin-3-yl)-5-fluoro-pyridin-2-yl]-amide] | 280 nM
9 | Cc1cnc(C(=O)Nc2ccc(F)c([C@]3(C)CO[C@@](C)(C(F)(F)F)C(N)=N3)n2)c(C)n1 [Example 41, 3,5-Dimethyl-pyrazine-2-carboxylic acid [6-((3R,6R)-5-amino-3,6-dimethyl-6-trifluoromethyl-3,6-dihydro-2H-[1,4]oxazin-3-yl)-5-fluoro-pyridin-2-yl]amide] | 161 nM
10 | Cc1cc(C#N)cnc1C(=O)Nc1cccc(C2(CF)COCC(N)=N2)n1 (stereo not drawn) [Example 5, 5-Cyano-3-methyl-pyridine-2-carboxylic acid [6-(5-amino-3-fluoromethyl-3,6-dihydro-2H-[1,4]oxazin-3-yl)-pyridin-2-yl]-amide] | 40 nM
11 | [2H]c1nc(C(=O)Nc2cc(C3(CF)COCC(N)=N3)ccn2)c(C([2H])([2H])[2H])c([2H])c1Cl (stereo not drawn) [Example 13, 5-{2-[(5-Chloro-4,6-dideuterio-3-trideuteromethyl-pyridine-2-carbonyl)-amino]-pyridin-4-yl}-5-fluoromethyl-5,6-dihydro-2H-[1,4]oxazin-3-yl-ammonium Acetate] | 550 nM
12 | Cc1cc(C#N)cnc1C(=O)Nc1ccc(F)c([C@]2(C(F)F)COCC(N)=N2)n1 [Example 38, 5-Cyano-3-methyl-pyridine-2-carboxylic acid [6-((R)-5-amino-3-difluoromethyl-3,6-dihydro-2H-[1,4]oxazin-3-yl)-5-fluoro-pyridin-2-yl]-amide] | 5 nM
13 | C[C@@]1(c2cccc(NC(=O)c3ccc(C#N)cn3)n2)CO[C@@](C)(C(F)(F)F)C(N)=N1 [Example 10, 5-Cyano-pyridine-2-carboxylic acid [6-((3R,6R)-5-amino-3,6-dimethyl-6-trifluoromethyl-3,6-dihydro-2H-[1,4]oxazin-3-yl)-pyridin-2-yl]-amide] | 17 nM
14 | C[C@@]1(c2cccc(NC(=O)c3ccc(Br)cn3)n2)COCC(N)=N1 [Example 1, 5-Bromo-pyridine-2-carboxylic acid [6-((R)-5-amino-3-methyl-3,6-dihydro-2H-[1,4]-oxazin-3-yl)-pyridin-2-yl]-amide] | 41 nM
15 | Cc1cc(C#N)cnc1C(=O)Nc1cccc([C@]2(C)CO[C@@](C)(C(F)(F)F)C(N)=N2)n1 [Example 8, 5-Cyano-3-methyl-pyridine-2-carboxylic Acid [6-((3R,6R)-5-amino-3,6-dimethyl-6-trifluoro-methyl-3,6-dihydro-2H-[1,4]oxazin-3-yl)-pyridin-2-yl]-amide] | 6 nM
16 | C[C@@]1(c2nc(NC(=O)c3ncc(OCCCF)nc3N)ccc2F)CO[C@@](C)(C(F)(F)F)C(N)=N1 [Example 42, 3-Amino-5-(3-fluoro-propoxy)-pyrazine-2-carboxylic acid [6-((3R,6R)-5-amino-3,6-dimethyl-6-trifluoromethyl-3,6-dihydro-2H-[1,4]oxazin-3-yl)-5-fluoro-pyridin-2-yl]amide] | 72 nM
17 | Cc1cc(C#N)cnc1C(=O)Nc1cc([C@@]2(C)CO[C@@](C)(C(F)(F)F)C(N)=N2)c(F)cn1 [Example 17, 5-Cyano-3-methyl-pyridine-2-carboxylic acid [4-((3S,6R)-5-amino-3,6-dimethyl-6-trifluoromethyl-3,6-dihydro-2H-[1,4]oxazin-3-yl)-5-fluoro-pyridin-2-yl]-amide] | 4800 nM
18 | C[C@@]1(c2cccc(NC(=O)c3ncc(C#N)cc3N)n2)CO[C@@](C)(C(F)(F)F)C(N)=N1 [Example 19, 3-Amino-5-cyano-pyridine-2-carboxylic acid [6-((3R,6R)-5-amino-3,6-dimethyl-6-trifluoromethyl-3,6-dihydro-2H-[1,4]oxazin-3-yl)-pyridin-2-yl]-amide] | 48 nM
19 | N#Cc1cnc(C(=O)Nc2ccc(F)c([C@]3(C(F)F)COCC(N)=N3)n2)c(Cl)c1 [Example 40, 3-Chloro-5-cyano-pyridine-2-carboxylic acid [6-((R)-5-amino-3-difluoromethyl-3,6-dihydro-2H-[1,4]oxazin-3-yl)-5-fluoro-pyridin-2-yl]-amide] | 12 nM
20 | C[C@]1(c2cccc(NC(=O)c3ccc(C#N)cn3)n2)CO[C@@](C)(C(F)(F)F)C(N)=N1 [Example 9, 5-Cyano-pyridine-2-carboxylic acid [6-((3S,6R)-5-amino-3,6-dimethyl-6-trifluoromethyl-3,6-dihydro-2H-[1,4]oxazin-3-yl)-pyridin-2-yl]-amide] | 1900 nM
21 | NC1=NC(CF)(c2cccc(NC(=O)c3ccc(Cl)cn3)n2)COC1 (stereo not drawn) [Example 3, 5-{6-[(5-Chloro-pyridine-2-carbonyl)-amino]-pyridin-2-yl}-5-fluoromethyl-5,6-dihydro-2H-[1,4]oxazin-3-yl-ammonium Trifluoro Acetate] | 140 nM
22 | COCCn1ccc2nc(C(=O)Nc3ccc(F)c([C@]4(C)CO[C@@](C)(C(F)(F)F)C(N)=N4)n3)c(N)nc21 [Example 43, 3-Amino-5-(2-methoxy-ethyl)-5H-pyrrolo[2,3-b]pyrazine-2-carboxylic acid [6-((3R,6R)-5-amino-3,6-dimethyl-6-trifluoromethyl-3,6-dihydro-2H-[1,4]oxazin-3-yl)-5-fluoro-pyridin-2-yl]amide] | 370 nM
23 | Cc1cc(OCF)cnc1C(=O)Nc1ccc(F)c([C@]2(C)CO[C@@](C)(C(F)(F)F)C(N)=N2)n1 [Example 32, 5-Fluoromethoxy-3-methyl-pyridine-2-carboxylic acid [6-((3R,6R)-5-amino-3,6-dimethyl-6-trifluoromethyl-3,6-dihydro-2H-[1,4]oxazin-3-yl)-5-fluoro-pyridin-2-yl]amide] | 26 nM
24 | C[C@@]1(c2nc(NC(=O)c3nc4ccn(CC(F)F)c4nc3N)ccc2F)CO[C@@](C)(C(F)(F)F)C(N)=N1 [Example 45, 3-Amino-5-(2,2-difluoro-ethyl)-5H-pyrrolo[2,3-b]pyrazine-2-carboxylic acid [6-((3R,6R)-5-amino-3,6-dimethyl-6-trifluoromethyl-3,6-dihydro-2H-[1,4]oxazin-3-yl)-5-fluoro-pyridin-2-yl]-amide] | 3600 nM
25 | Cc1cc(C#N)cnc1C(=O)Nc1ccc(F)c([C@]2(C)CO[C@@](C)(C(F)(F)F)C(N)=N2)n1 [Example 11, 5-Cyano-3-methyl-pyridine-2-carboxylic Acid [6-((3R,6R)-5-amino-3,6-dimethyl-6-trifluoromethyl-3,6-dihydro-2H-[1,4]oxazin-3-yl)-5-fluoro-pyridin-2-yl]-amide] | 2 nM
26 | COc1cnc(C(=O)Nc2ccc(F)c([C@]3(C)CO[C@@](C)(C(F)(F)F)C(N)=N3)n2)c(C)c1 [Example 25, 5-Methoxy-3-methyl-pyridine-2-carboxylic acid [6-((3R,6R)-5-amino-3,6-dimethyl-6-trifluoromethyl-3,6-dihydro-2H-[1,4]oxazin-3-yl)-5-fluoro-pyridin-2-yl]amide] | 76 nM
27 | [2H]c1nc(C(=O)Nc2cccc(C3(CF)COCC(N)=N3)n2)c(C([2H])([2H])[2H])c([2H])c1Cl (stereo not drawn) [Example 6, 4,6-Dideutero-5-chloro-3-trideuteromethyl-pyridine-2-carboxylic acid [6-(5-amino-3-fluoromethyl-3,6-dihydro-2H-[1,4]oxazin-3-yl)-pyridin-2-yl]-amide] | 63 nM
